Laboratory results: patent US20200262813A1, “1,5,7-TRISUBSTITUTED ISOQUINOLINE DERIVATIVES, PREPARATION THEREOF, AND USE THEREOF IN MEDICINES” (SHANGHAI HAIYAN PHARMACEUTICAL TECHNOLOGY CO., LTD., priority 2016, published 2020)

Columns and labels:
Pfeiffer cells = test: Cell proliferation test (cell counting kit-8, 6 days); format: cell-based; details: 6 days' growth
Protocol: Cells were harvested by centrifuge and densities were determined using a CounterStar cell counter. Appropriate number of cells were plated in a 96-well culture plate and incubated overnight. Compounds to be tested were 1:3 diluted for 8 gradient points and added into corresponding wells. After 6 days' growth, cell counting kit-8 (Dojindo) was used to detect cell viability and absorbance values were read on Tecan infinite pro.

[1] = target: Recombinant PRC2 (EZH2-Y641F) (Homo sapiens, UniProt Q15910, Y641F); test: In vitro methyltransferase activity test (LANCE Ultra); details: EZH2 Y641F IC50, Recombinant PRC2 (EZH2-Y641F), LANCE Ultra detection, 3 hours reaction;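 also: compounds tested as an 8-point threefold dilution series, fluorescence read after 1 h detection step at room temperature, IC50 derived from a four-parameter curve fit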
Chain of Recombinant PRC2 (EZH2-Y641F) (Q15910 whole entry Y641F): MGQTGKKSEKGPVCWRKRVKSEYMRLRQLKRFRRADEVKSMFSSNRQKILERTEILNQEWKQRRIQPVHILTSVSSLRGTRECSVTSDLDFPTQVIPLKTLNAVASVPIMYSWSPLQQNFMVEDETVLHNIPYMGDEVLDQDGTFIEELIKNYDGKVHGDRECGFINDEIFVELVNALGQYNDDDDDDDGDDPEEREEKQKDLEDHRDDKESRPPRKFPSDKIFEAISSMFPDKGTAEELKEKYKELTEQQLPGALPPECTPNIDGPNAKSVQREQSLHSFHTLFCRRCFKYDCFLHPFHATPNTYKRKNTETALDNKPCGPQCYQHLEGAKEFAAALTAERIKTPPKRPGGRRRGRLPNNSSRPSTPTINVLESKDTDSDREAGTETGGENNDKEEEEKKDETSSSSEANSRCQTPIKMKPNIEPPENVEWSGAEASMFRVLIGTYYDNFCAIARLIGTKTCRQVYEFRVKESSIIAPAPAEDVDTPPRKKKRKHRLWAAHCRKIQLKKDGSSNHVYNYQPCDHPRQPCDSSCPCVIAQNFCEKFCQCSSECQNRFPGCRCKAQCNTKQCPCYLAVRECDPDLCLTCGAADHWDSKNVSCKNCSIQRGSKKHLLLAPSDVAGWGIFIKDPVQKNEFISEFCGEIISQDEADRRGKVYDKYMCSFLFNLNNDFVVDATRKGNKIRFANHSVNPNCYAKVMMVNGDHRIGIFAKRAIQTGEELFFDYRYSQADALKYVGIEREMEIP
Chain of Recombinant PRC2 (EZH2-Y641F) (O75530 whole entry partner): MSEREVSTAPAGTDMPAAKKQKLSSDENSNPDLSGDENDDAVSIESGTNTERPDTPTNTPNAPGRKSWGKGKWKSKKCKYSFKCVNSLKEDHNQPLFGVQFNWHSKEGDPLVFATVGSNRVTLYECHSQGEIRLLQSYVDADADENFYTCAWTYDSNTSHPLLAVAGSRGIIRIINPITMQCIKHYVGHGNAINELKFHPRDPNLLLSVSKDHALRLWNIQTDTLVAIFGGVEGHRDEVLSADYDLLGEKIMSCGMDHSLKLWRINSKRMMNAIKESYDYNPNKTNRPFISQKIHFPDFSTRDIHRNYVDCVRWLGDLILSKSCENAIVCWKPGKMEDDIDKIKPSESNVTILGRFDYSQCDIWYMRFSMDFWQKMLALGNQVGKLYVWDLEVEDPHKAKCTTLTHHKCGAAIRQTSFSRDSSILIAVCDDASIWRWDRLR
Chain of Recombinant PRC2 (EZH2-Y641F) (Q15022 whole entry partner): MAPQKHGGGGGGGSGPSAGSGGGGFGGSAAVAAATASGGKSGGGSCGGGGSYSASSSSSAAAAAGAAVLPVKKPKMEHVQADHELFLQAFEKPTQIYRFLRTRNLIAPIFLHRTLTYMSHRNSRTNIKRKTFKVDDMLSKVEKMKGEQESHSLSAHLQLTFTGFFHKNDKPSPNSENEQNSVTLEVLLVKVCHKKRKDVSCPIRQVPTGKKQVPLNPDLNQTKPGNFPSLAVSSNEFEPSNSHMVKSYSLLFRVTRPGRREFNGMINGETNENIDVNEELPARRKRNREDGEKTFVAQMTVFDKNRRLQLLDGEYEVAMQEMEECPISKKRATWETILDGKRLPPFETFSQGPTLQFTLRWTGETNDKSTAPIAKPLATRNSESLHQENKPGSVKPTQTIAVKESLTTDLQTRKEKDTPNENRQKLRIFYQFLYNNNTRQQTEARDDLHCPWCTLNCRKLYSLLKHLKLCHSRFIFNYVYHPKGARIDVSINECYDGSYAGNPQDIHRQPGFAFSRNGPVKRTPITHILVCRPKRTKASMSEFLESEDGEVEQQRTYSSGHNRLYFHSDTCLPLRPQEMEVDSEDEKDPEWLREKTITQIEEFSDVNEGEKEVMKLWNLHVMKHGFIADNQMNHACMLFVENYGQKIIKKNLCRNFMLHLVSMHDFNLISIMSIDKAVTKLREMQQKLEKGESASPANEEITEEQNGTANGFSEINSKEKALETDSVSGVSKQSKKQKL
Chain of Recombinant PRC2 (EZH2-Y641F) (Q09028 whole entry partner): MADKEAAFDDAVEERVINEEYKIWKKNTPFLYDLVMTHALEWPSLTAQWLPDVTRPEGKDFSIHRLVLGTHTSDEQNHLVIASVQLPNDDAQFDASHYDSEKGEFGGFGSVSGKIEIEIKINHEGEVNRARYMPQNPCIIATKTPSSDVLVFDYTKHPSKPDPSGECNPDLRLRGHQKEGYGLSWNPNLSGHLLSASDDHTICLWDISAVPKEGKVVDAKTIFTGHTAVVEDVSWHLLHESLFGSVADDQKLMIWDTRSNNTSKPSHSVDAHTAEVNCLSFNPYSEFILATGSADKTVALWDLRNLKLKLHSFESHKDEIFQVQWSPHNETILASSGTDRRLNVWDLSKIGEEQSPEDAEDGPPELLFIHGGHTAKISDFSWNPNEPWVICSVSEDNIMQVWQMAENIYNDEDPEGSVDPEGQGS
Chain of Recombinant PRC2 (EZH2-Y641F) (Q6ZN18 whole entry partner): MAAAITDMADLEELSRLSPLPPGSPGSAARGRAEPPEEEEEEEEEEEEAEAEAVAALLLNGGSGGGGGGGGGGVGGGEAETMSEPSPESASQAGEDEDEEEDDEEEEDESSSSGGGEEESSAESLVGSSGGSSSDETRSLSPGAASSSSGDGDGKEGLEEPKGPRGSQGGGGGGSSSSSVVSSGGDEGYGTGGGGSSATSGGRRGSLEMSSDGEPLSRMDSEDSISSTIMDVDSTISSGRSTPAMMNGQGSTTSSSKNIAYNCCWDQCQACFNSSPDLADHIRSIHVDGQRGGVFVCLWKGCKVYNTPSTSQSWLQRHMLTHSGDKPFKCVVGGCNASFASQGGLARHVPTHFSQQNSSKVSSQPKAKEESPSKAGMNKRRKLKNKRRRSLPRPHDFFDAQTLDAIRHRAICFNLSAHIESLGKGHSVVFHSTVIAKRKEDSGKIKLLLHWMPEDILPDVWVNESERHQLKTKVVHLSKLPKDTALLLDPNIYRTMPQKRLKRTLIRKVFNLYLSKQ

SMILES	IC50 (Pfeiffer cells; Homo sapiens, Pfeiffer, 144 h) [nM]	IC50 [1] [nM]	IC50 (Pfeiffer cells) [nM]
CCN(c1cc(-c2ccc(C3CCN(C)CC3)nc2)cc2c(NCc3c(C)cc(C)[nH]c3=O)nccc12)[C@H]1CC[C@H](N(C)C)CC1 [Compound Z-17, 3-((5-(((1R,4R)-4-(dimethylamino)cyclohexyl) (ethyl)amino)-7-(6-(1-methylpiperidine-4-yl)pyridine-3-yl)-isoquinolinylamino)methyl)-4,6-dimethylpyridine-2(1H)-one]	768	13	–
CCN(c1cc(-c2ccc(CN3CCN(C)CC3)nc2)cc2c(NCc3c(C)cc(C)[nH]c3=O)nccc12)C1CCOCC1 [Compound Z-35]	–	221	611
CCN(c1cc(-c2ccc(CN3CCCCC3)cc2)cc2c(NCc3c(C)cc(C)[nH]c3=O)nccc12)C1CCC(N(C)C)CC1 (stereo not shown) [Compound Z-37]	991	28	–
CCN(c1cc(-c2ccc(N3CCOCC3)nc2)cc2c(NCc3c(C)cc(C)[nH]c3=O)nccc12)C1CCC(N(C)C)CC1 (stereo not shown) [Compound Z-39]	507	16	–
CCN(c1cc(-c2ccc(CN(C)C)cc2)cc2c(NCc3c(C)cc(C)[nH]c3=O)nccc12)C1CCC(N(C)C)CC1 (stereo not shown) [Compound Z-45]	599	38	–
CCN(c1cc(-c2cnc(N3CCOCC3)nc2)cc2c(NCc3c(C)cc(C)[nH]c3=O)nccc12)[C@H]1CC[C@H](N(C)C)CC1 [Compound Z-46]	362	14	–
CCN(c1cc(-c2ccc(CN3CCN(C)CC3)cc2)cc2c(NCc3c(C)cc(C)[nH]c3=O)nccc12)[C@H]1CC[C@H](N(C)C)CC1 [Compound Z-54]	614	19	–
CCN(c1cc(-c2cccnc2)cc2c(NCc3c(C)cc(C)[nH]c3=O)nccc12)[C@H]1CC[C@@H](N(C)C)CC1 [Compound Z-64]	357	9	–
CCN(c1cc(-c2cncnc2)cc2c(NCc3c(C)cc(C)[nH]c3=O)nccc12)C1CCC(N(C)C)CC1 (stereo not shown) [Compound Z-65]	972	52	–
CCN(c1cc(-c2ccc(N3CCOCC3)nc2)cc2c(NCc3c(C)cc(C)[nH]c3=O)nccc12)C1CCN(C(C)C)CC1 [Compound Z-66]	766	159	–
CCN(c1cc(-c2ccncc2)cc2c(NCc3c(C)cc(C)[nH]c3=O)nccc12)[C@H]1CC[C@H](N(C)C)CC1 [Compound Z-73]	593	150	–
CCN(c1cc(-c2ccc(N3CCN(C)CC3)nc2)cc2c(NCc3c(C)cc(C)[nH]c3=O)nccc12)C1CCN(C2CC2)CC1 [Compound Z-74]	799	326	–
CCN(c1cc(-c2cccnc2)cc2c(NCc3c(C)cc(C)[nH]c3=O)nccc12)C1CCC(O)CC1 (stereo not shown) [Compound Z-85]	521	269	–
CCN(c1cc(-c2ccc(N3CCN(C)CC3)nc2)cc2c(NCc3c(C)cc(C)[nH]c3=O)nccc12)C1CCC(O)CC1 (stereo not shown) [Compound Z-86]	483	128	–
CCN(c1cc(-c2cnc(N3CCN(C)CC3)nc2)cc2c(NCc3c(C)cc(C)[nH]c3=O)nccc12)C1CCC(O)CC1 (stereo not shown) [Compound Z-89]	401	43	–
CCN(c1cc(C2=CCN(C)CC2)cc2c(NCc3c(C)cc(C)[nH]c3=O)nccc12)C1CCC(O)CC1 (stereo not shown) [Compound Z-91]	291	75	–
CCN(c1cc(-c2ccc(C3CC3)nc2)cc2c(NCc3c(C)cc(C)[nH]c3=O)nccc12)C1CCC(N(C)C)CC1 (stereo not shown) [Compound Z-93]	279	74	–
CCN(c1cc(-c2ccc(N3CCN(C)CC3)nc2)cc2c(NCc3c(C)cc(C)[nH]c3=O)nccc12)C1CCC(F)(F)CC1 [Compound Z-94]	384	159	–
CCN(CCN(C)C)c1cc(-c2ccc(N3CCN(C)CC3)nc2)cc2c(NCc3c(C)cc(C)[nH]c3=O)nccc12 [Compound Z-97]	326	283	–
CCN(c1cc(-c2cnc(N3CCOCC3)nc2)cc2c(NCc3c(C)cc(C)[nH]c3=O)nccc12)C1CCC(O)CC1 (stereo not shown) [Compound Z-99]	201	251	–
